The values that follow come from US10646483B2, “Crystal form of imidazolone type compounds, and preparation method, pharmaceutical composition and use thereof” (Foreland Pharma Co., Ltd., priority 2016, dated 2020).

A short description of data set [1]: Test of dissolution rate in distilled water. It is filed as physicochemical. The note with it: 3 mg in 1 ml distilled water, shaken at 20-25° C. for 5 seconds. The procedure:
3 mg each of Crystal Form VII, Crystal Form I, and Crystal Form VI, were weighed, and put into three 1 ml plastic centrifuge tubes, respectively. To each tube was added 1 ml of distilled water and shaken at 20-25° C. for 5 seconds.

A short description of data set [2]: Solid stability test of Crystal Form I (drug stability test box: high temperature, high humidity, strong illumination). Type of data set: physicochemical. The text has this:
A small amount of Crystal Form I of Compound 1 hydrochloride monohydrate of Example I-1 was taken and placed in a drug stability test box. The conditions were controlled as listed in Table 1 for the stability test. The results of the purities and the contents are listed in Table I-1, and the results of the crystal form tests are shown in FIGS. 4 to 6.

Data set [3] can be described thus: Tableting stability test (XRPD before and after tableting). It is filed as physicochemical. The note with it: manually tableted, 8 mm tablets, ground, FIG. 7. The text has this: A small amount of Crystal Form I of Compound 1 hydrochloride monohydrate of Example 1 was taken and manually tableted to tablets with a diameter of 8 mm. The tablets were then gently ground. […] The XRPD patterns of the powders before and after the tableting of Crystal Form I were compared.

Data set [4] can be described thus: Metabolic experiments after oral (intragastric) administration to SD rats. It is filed as in vivo. The note with it: 10 mg/kg; for AUC(0-inf) / AUC(0-t) / MRT / Tmax / Cmax / half-life: rat, po. Here is the method: 11.392 mg of Crystal Form I of Compound 1 hydrochloride was suspended in […] of 0.5% sodium carboxymethylcellulose, mixed to form a homogenous suspension, and then sonicated for 2 min to give a homogenous suspension having a concentration of 2 mg/mL (the suspension present was prepared on the day of administration, and stored for no more than 4 hours). Three SD rats were intragastrically administered at a dose of 10 mg/kg body weight, and blood analysis was performed at the set time points.

The mark [5] stands for this setting: Active Pharmaceutical Ingredient, Initial.
Where [6] appears, read: Illumination (4500 Lx ± 500 Lx), Day 5.
Where [7] appears, read: Illumination (4500 Lx ± 500 Lx), Day 10.
Where [8] appears, read: high temperature, high humidity and strong illumination, up to Day 10.
Setting [9] is: SD (Sprague-Dawley), blood, SD rat, Rat 1.
Where [10] appears, read: SD (Sprague-Dawley), blood, SD rat, Rat 2.
Where [11] appears, read: SD (Sprague-Dawley), blood, SD rats, Average of three rats.

The structures appear in SMILES notation. Where two headings read alike, the source gives them in different places.

Consider `Cn1cc(-c2ccc(-c3ccc4ncc5c(c4c3)n([C@H]3CC[C@@H](O)CC3)c(=O)n5C)cn2)cn1` [Crystal Form VI, 1-((1s,4s)-4-hydroxycyclohexyl)-3-methyl-8-(6-(1-methyl-1H-pyrazol-4-yl)pyridin-3-yl)-1H-imidazo[4,5-c]quinoline-2(3H)-one], for which the “time to dissolve completely” value in data set [1] is over 5 h.
As to `Cn1cc(-c2ccc(-c3ccc4ncc5c(c4c3)n([C@H]3CC[C@@H](O)CC3)c(=O)n5C)cn2)cn1` [Crystal Form VII, 1-((1s,4s)-4-hydroxycyclohexyl)-3-methyl-8-(6-(1-methyl-1H-pyrazol-4-yl)pyridin-3-yl)-1H-imidazo[4,5-c]quinoline-2(3H)-one], the “time to dissolve completely” value in data set [1] is at most 0.00278 h.
As to `Cn1cc(-c2ccc(-c3ccc4ncc5c(c4c3)n([C@H]3CC[C@@H](O)CC3)c(=O)n5C)cn2)cn1` [Crystal Form I, 1-((1s,4s)-4-hydroxycyclohexyl)-3-methyl-8-(6-(1-methyl-1H-pyrazol-4-yl)pyridin-3-yl)-1H-imidazo[4,5-c]quinoline-2(3H)-one], the “time to dissolve completely” value in data set [1] is 5 h. In data set [1], the “time to dissolve substantially” value came out at 2 h. Also, the Content % was 100.86% in data set [2] (25° C./95% RH, Day 5); 99.61% in data set [2] (25° C./95% RH, Day 10); 99.62% in data set [2] (60° C., Day 5); 99.51% in data set [2] (60° C., Day 10); 100.41% in data set [2] (setting [5]); 99.84% in data set [2] (setting [6]). For the same compound, in data set [2] (setting [7]), the Content % amounted to 99.50%. Further, the Impurity % was found to be 0.72% in data set [2] (25° C./95% RH, Day 5); 0.74% in data set [2] (25° C./95% RH, Day 10); 0.73% in data set [2] (60° C., Day 5); 0.79% in data set [2] (60° C., Day 10); 0.74% in data set [2] (setting [5]); 0.93% in data set [2] (setting [6]). In data set [2] (setting [7]), this compound returned an Impurity % of 0.87%. The Purity % came to 99.28% in data set [2] (25° C./95% RH, Day 5); 99.26% in data set [2] (25° C./95% RH, Day 10); 99.27% in data set [2] (60° C., Day 5); 99.21% in data set [2] (60° C., Day 10); 99.26% in data set [2] (setting [5]); 99.07% in data set [2] (setting [6]). The compound also yielded a Purity % in data set [2] (setting [7]) of 99.13%. In addition, in data set [2] (high temperature, high humidity and strong illumination (FIGS. 4 to 6)), the “crystal form (XRPD) after stability test” value is given as “remains unchanged”. In addition, the “fluctuation of the content” value in data set [2] (setting [8]) is recorded as at most 1%. Besides, in data set [2] (setting [8]), the “fluctuation of the purity” value is recorded as at most 0.2%. Besides, the “effect of tableting process on crystal form (XRPD)” value in data set [3] is on record as “did not change”. In addition, the AUC(0-inf) (in general, total exposure, with the tail of the curve extrapolated) in data set [4] (setting [9]) stood at 247 µg·h/mL; in data set [4] (setting [10]), 192 µg·h/mL; in data set [4] (setting [11]) it was 201 µg·h/mL; in data set [4] (SD, plasma, SD rat, Rat 3) it was 163 µg·h/mL. The AUC(0-t) (as a rule, exposure summed from dosing to a finite time, without extrapolation to infinity) in data set [4] (setting [9]) is 235 µg·h/mL; in data set [4] (setting [10]) it was 183 µg·h/mL; in data set [4] (setting [11]), 191 µg·h/mL; in data set [4] (SD, plasma, SD rat, Rat 3), 154 µg·h/mL; in data set [4] (SD, plasma, SD rats, average value), 191 µg·h/mL. Moreover, the MRT (in general, the average time that molecules of a dose stay in the body) is 6.74 h in data set [4] (setting [9]); 7.13 h in data set [4] (setting [10]); 6.84 h in data set [4] (setting [11]); 6.65 h in data set [4] (SD, plasma, SD rat, Rat 3). Further, the Tmax (in general, the time from dosing to the highest level) in data set [4] (setting [9]) came to 2.8 h; in data set [4] (setting [10]), 4 h; in data set [4] (SD, plasma, SD rat, Rat 3), 2.5 h; in data set [4] (SD, plasma, SD rats, Average of three rats), 3.1 h. In addition, the Cmax in data set [4] (SD (Sprague-Dawley), blood, SD rat, Rat 1, read-out: Cmax) is 19000 ng/mL; in data set [4] (SD (Sprague-Dawley), blood, SD rat, Rat 2, read-out: Cmax), 12100 ng/mL; in data set [4] (SD, plasma, SD rat, Rat 3, read-out: Cmax), 12700 ng/mL; in data set [4] (SD, plasma, SD rats, Average of three rats, read-out: Cmax), 14600 ng/mL; in data set [4] (SD, plasma, SD rats, average value, read-out: maximum plasma concentration (Cmax)) it was 14600 ng/mL. The half-life is 5.4 h in data set [4] (SD (Sprague-Dawley), blood, SD rat, Rat 2, read-out: t½ (converted)); 5.28 h in data set [4] (SD (Sprague-Dawley), blood, SD rat, suspension in 0.5% sodium carboxymethylcellulose, Rat 1, read-out: t½ (converted)); 5.81 h in data set [4] (SD, plasma, SD rat, Rat 3, read-out: t½ (converted)); 5.5 h in data set [4] (SD, plasma, SD rats, Average of three rats, read-out: t½ (converted)); 5.5 h in data set [4] (SD, plasma, SD rats, average value, read-out: half-life (converted)). In addition, the “AUC Extr” value in data set [4] (SD rat, Rat 1) is 4.72%; in data set [4] (SD rat, Rat 2) it was 4.70%; in data set [4] (SD rat, Rat 3), 5.96%; in data set [4] (SD rats, Average of three rats), 5.13%. In addition, the AUC/D in data set [4] (SD rat, Rat 1) was 11758 ng·kg·h/mg/mL; in data set [4] (SD rat, Rat 2), 9171 ng·kg·h/mg/mL; in data set [4] (SD rat, Rat 3), 7675 ng·kg·h/mg/mL; in data set [4] (SD rats, Average of three rats), 9535 ng·kg·h/mg/mL.
